Assay results from patent US7741303B2, “Stimulation of cellular regeneration and differentiation in the inner ear” (Sound Pharmaceuticals Incorporated, priority 1998, dated 2010).

Tests used:
[1] = system: guinea pig JH4 cells; experiment: Reversal of serum-deprivation growth arrest, BrdU labeling; assay type: cell-based
From the text: Cells were counted under fluorescence microscopy. The combination of lipids and p27^kip1. AS reversed growth arrest to 40% of that seen with 10% FBS stimulation (p<0.0001). (+) FBS; (−) no FBS; (AS) antisense oligonucleotide; (lipid) lipofection.
Cultures of cell lines were established that are responsive to p27^Kip1 antisense oligonucleotides (ON) during the period of serum withdrawal and growth arrest. These cultures include a guinea pig fibroblast line (JH4). Lipofection of the 16 mer antisense ON (having the nucleic acid sequence set forth in SEQ ID NO:20) reversed growth arrest in the JH4 cell line to over 40% of normal.

[2] = system: organ of Corti; experiment: BrdU-labeled cells in the organ of Corti of p27^Kip1 +/+, +/−, −/− mice after amikacin lesioning; assay type: in vivo; conditions: for number of BrdU labeled cells in the organ of Corti: 1000 μm length of sensory epithelium, apical half of cochlea, ±s.d.
Method: To determine whether auditory hair cells were being produced after the onset of hearing at postnatal day 10, two-week old p27^Kip1 −/−, +/−, +/+ mice (P10-12) received three daily systemic injections of bromodeoxyuridine (BrdU; 30 mg/kg/s.c), a nucleotide analog which is incorporated into proliferating cells during S phase. Mice were then permitted to recover for two-days or two-weeks without further injections. BrdU positive HCs were identified with immunocytochemistry using light and fluorescence microscopy. Cochlea were also labeled with antibodies against myosin-VI and myosin-VIIa. In two-week old p27^Kip1 −/− cochlea that were recovered for 2d after the last injection, no BrdU/myosin-VIIa positive cells were observed among the BrdU positive cells. However, in four-week old p27^Kip1 −/− cochlea that were recovered for 14 days after the last injection, BrdU/myosin-VIIa positive HCs were observed. Most of those double labeled were IHCs. This qualitative finding is similar to our quantitative assessments of IHCs and OHCs numbers. p27^Kip1 +/−, +/+ mice were completely devoid of BrdU positive cells at 2d and 14d of recovery. […] Counts were performed on a 1000 μm length of sensory epithelium taken in the apical half of the cochlea (±s.d.). Proliferation in the BrdU groups were compared across +/+, +/−and −/−. Proliferation in the BrdU/Amikacin group was compared with that in the BrdU only group of the same genotype. Statistical significance was determined using ANOVA.
To ascertain whether auditory HCs could be regenerated, HCs were lesioned using systemic injections of amikacin sulfate (P7-P12) and then injected with BrdU (P10-12). Mice were sacrificed either 2 d or 14 d after the last injection. The effects of an amikacin lesioning were at least two-fold. First, in both p27^Kip1 −/− and +/− mice, the number of BrdU positive cells increased following amikacin/BrdU vs BrdU alone treatment. […] Evidence of HC regeneration was confirmed by sectioning the labeled cochlea. Second, a greater number of BrdU positive HCs were observed following amikacin lesioning in p27^Kip1 −/− cochlea. The majority of the BrdU positive HCs appeared in the regions of the cochlea where the amikacin sulfate had injured or killed HCs (in the basal half of the cochlea).

[3] = system: utricular, saccular and cristae sensory epithelium; experiment: BrdU-labeled cells in the vestibular organs of p27^Kip1 mice after amikacin/BrdU; assay type: in vivo; conditions: for number of BrdU labeled cells, utricle: BrdU/Amikacin (500 mg/kg/d s.c., P7-P12)
Method: To determine whether p27^Kip1 plays a similar role in the peripheral vestibular system, the proliferative capacity of the utricle, saccule and cristae of p27^Kip1 +/−, and +/+ mice was examined. Mice (P7-P12) received systemic injections of amikacin sulfate (500 mg/kg/d/s.c) for six consecutive days that were combined with injections of the replication marker, bromodeoxyuridine (BrdU; 30 mg/kg/d/s.c) between P10-P12. Mice were also injected with BrdU alone in a similar fashion. Mice were then sacrificed 14 d later and the vestibular sensory organs were fixed, dissected and processed for BrdU immunocytochemistry. BrdU positive nuclei were counted from whole mounts using light microscopy and Nomarski optics. Selected organs were further processed for cross section analysis.
BrdU positive HCs were also observed in both otolithic organs. Most of these regenerated HC appeared as type I HCs in that they were contacted by a calyx. […] In p27^Kip1 +/+ mice, no BrdU positive nuclei in either the saccule or utricle were observed after amikacin/BrdU or BrdU alone. […] Counts were performed from whole utricular, saccular and cristae sensory epithelium (±s.d.). In the BrdU group, statistical significance was determined by comparing proliferation levels in the same sensory organ across +/+, +/− and −/−. In the BrdU/Amikacin group, statistical significance was determined by comparing proliferation levels in the same sensory organ of the same genotype. Statistical significance was determined using ANOVA.

[4] = system: auditory function; experiment: Auditory brainstem response (ABR) threshold after amikacin sulfate treatment; assay type: in vivo, mice; conditions: p27 heterozygotes, two and four weeks after amikacin sulfate treatment; p<0.001
Method: Experimental animals were treated the same as the mice described in the experiments reported in Table 2 herein, except that, in the present example, there was an additional recovery time point at four weeks after amikacin treatment. Auditory function was measured using the auditory brainstem response (ABR) using subcutaneous recording electrodes placed on three head points in Isofluorane anesthetized mice. The sound intensity threshold was determined by presenting single frequencies as different sound intensities (intensity measured in decibels). The higher the tone intensity that is required to elicit the ABR, the higher the auditory threshold, i.e., the worse the auditory function.

[5] = system: supporting cells of wild type organ of Corti explants; experiment: p27^Kip1 antisense oligonucleotide treatment of neomycin-lesioned organ of Corti explants, BrdU immunocytochemistry; assay type: cell-based, mouse
Method: (§1) To test whether inhibition of the p27^Kip1 gene product in p27^Kip1 +/+ cochlea would allow non-mitotic supporting cells to proliferate, wild type organ of Corti explants (P7-P10, at age of hearing onset) were treated with p27^Kip1 antisense oligonucleotides (ONs). Explant cultures were established by dissecting the organ of Corti from the cochlea, removing the tectorial membrane and adhering the organ of Corti to a glass slide coated with Cell-tak and maintained at 37° C. in a 5% CO2 environment. The explant was then exposed to an ototoxic antibiotic (1 mM neomycin sulfate) for 48 h which killed >95% of the HCs (Kil, J., et al., ARO abs. 21:672 (1998)). The neomycin containing media was then removed and p27^Kip1 antisense oligonucleotides (Ons) (40 nM) were administered using a cationic lipid (lipofection) for a period of 24-48 hr. Some of these living cultures were examined under fluorescence to detect the presence of FITC conjugated antisense ON.
FITC-positive supporting cells were detected in 18-24 h and increased in number and fluorescent intensity between 24-48 h. Cultures were aldehyde fixed and processed for BrdU immunocytochemistry. […] BrdU-positive doublets appeared in antisense ON treated cultures that were recovered for an additional 24 hr without antisense ONs. […] Lipofection-only treated cultures contained very low levels of BrdU-labeled supporting cells.

[6] = system: hair cells of organ of Corti explant; experiment: Hair cell lesioning of organ of Corti cultures with neomycin; assay type: cell-based, mouse; conditions: 1 mM neomycin, organotypic cultures, 48 h, calbindin immunoreactivity and cross-section analysis
Method: as §1, with “The neomycin containing media was then removed and p27^Kip1 antisense oligonucleotides (Ons) (40 nM) were administered using a cationic lipid (lipofection) for a period of 24-48 hr.” left out, “ON. […]” for “ON.”
An aminoglycoside antibiotic lesion of the hair-cells is then be combined with subsequent lipofection. […] Unlike cultures derived from neonatal mice, the two-week old mouse which has developed auditory function is more easily affected by this concentration of neomycin resulting in a greater than 95% loss of hair-cells as determined by calbindin immunoreactivities and plastic cross-section analysis. […] This may necessitate the use of a commercially available GFP antibody (Clonetech) to enhance the fluorescence of lipofected cells.

[7] = system: hair cells of organ of Corti explant; conditions: 1 mM neomycin sulfate for 48 h; P7-P10 wild type explants; cited from earlier work
[8] = p27^Kip1 +/+ mice, BrdU/Amikacin, 14 d recovery, whole sensory epithelium, ±s.d.
[9] = p27^Kip1 +/− mice, BrdU/Amikacin, 14 d recovery, whole sensory epithelium, ±s.d.
[10] = p27^Kip1 −/− mice, BrdU/Amikacin, 14 d recovery, whole sensory epithelium, ±s.d.

## 16 mer antisense ON: 16 mer p27^Kip1 antisense ON having the nucleic acid sequence set forth in SEQ ID NO:20 (antisense TGGCTCTCCTGCGCC; listed as DNA, chemistry not given here)
[1]; lipofection, serum withdrawal
  reversal of growth arrest: over 40 % of normal
[1]; serum deprivation 24 hours, BrdU pulse last 4 hours, combination of lipids and AS, p<0.0001
  reversal of growth arrest (BrdU-labeled cells): 40 % of that seen with 10% FBS stimulation

## NCC[C@H](O)C(=O)N[C@@H]1C[C@H](N)[C@@H](O[C@H]2O[C@H](CN)[C@@H](O)[C@H](O)[C@H]2O)[C@H](O)[C@H]1O[C@H]1O[C@H](CO)[C@@H](O)[C@H](N)[C@H]1O.O=S(=O)(O)O.O=S(=O)(O)O [Amikacin, amikacin sulfate]
[2]; cochlea of both p27^Kip1 −/− and +/− mice
  number of BrdU positive cells following amikacin/BrdU vs BrdU alone treatment: increased
[2]; p27^Kip1 +/+ mice, BrdU/Amikacin + 2d recovery
  number of BrdU labeled cells in the organ of Corti: 0.0 ± 0.0
[2]; p27^Kip1 +/+ mice, BrdU/Amikacin + 14d recovery
  number of BrdU labeled cells in the organ of Corti: 0.0 ± 0.0
[2]; p27^Kip1 +/− mice, BrdU/Amikacin + 2d recovery
  number of BrdU labeled cells in the organ of Corti: 4.7 ± 7.6
[2]; p27^Kip1 +/− mice, BrdU/Amikacin + 14d recovery
  number of BrdU labeled cells in the organ of Corti: 10.5 ± 12.0
[2]; p27^Kip1 −/− mice, BrdU/Amikacin + 2d recovery
  number of BrdU labeled cells in the organ of Corti: 96.3 ± 9.5
[2]; p27^Kip1 −/− mice, BrdU/Amikacin + 14d recovery
  number of BrdU labeled cells in the organ of Corti: 137.4 ± 17.0
[2]; p27 heterozygotes of Table 2, amikacin treated
  p27 heterozygotes showing evidence of inner cell proliferative regeneration (BrdU-labeling and morphologic criteria): five out of ten
[2]; wt cochlea following amikacin/BrdU
  BrdU positive cells in wt cochlea: No BrdU positive cells were observed
[3]; p27^Kip1 +/+ mice, 14 d recovery, whole sensory epithelium, ±s.d.
  number of BrdU labeled cells, utricle: 0.0 ± 0.0
[3]; [8]
  number of BrdU labeled cells, cristae: 0.0 ± 0.0
  number of BrdU labeled cells, saccule: 0.0 ± 0.0
[3]; p27^Kip1 +/− mice
  proliferation in the saccule or utricle after combined amikacin/BrdU treatment: a very low level of proliferation was induced
[3]; p27^Kip1 +/− mice, 14 d recovery, whole sensory epithelium, ±s.d.
  number of BrdU labeled cells, utricle: 0.4 ± 0.7
[3]; [9]
  number of BrdU labeled cells, cristae: 0.0 ± 0.0
  number of BrdU labeled cells, saccule: 1.6 ± 1.9
[3]; p27^Kip1 −/− mice, 14 d recovery, whole sensory epithelium, ±s.d.
  number of BrdU labeled cells, utricle: 45.5 ± 19.2
[3]; [10]
  number of BrdU labeled cells, cristae (sub-head printed as utricle): 0.0 ± 0.0
  number of BrdU labeled cells, saccule: 51.8 ± 15.3
[3]; p27^Kip1 −/− mice, saccule and utricle (both organs), versus BrdU only
  increase in the number of BrdU positive cells after combined amikacin/BrdU treatment: 40 fold
[4]
  auditory improvement (ABR threshold): five out of eight

## antisense ON: p27^Kip1 antisense oligonucleotides administered using a cationic lipid (lipofection) to organ of Corti explants (antisense TGGCTCTCCTGCGCC; FITC conjugated, delivered with cationic lipid, further chemistry not given here)
[5]; 40 nM antisense ON by lipofection, after 24 h of treatment, after 1 mM neomycin 48 h
  BrdU-positive supporting cells: appeared in most cochlear cultures
[5]; FITC conjugated antisense ON, lipofection, living cultures under fluorescence
  time at which FITC-positive supporting cells were detected: 18 to 24 h
[5]; antisense ON treated cultures recovered for an additional 24 hr without antisense ONs
  BrdU-positive doublets: appeared

## neomycin sulfate
[6]
  loss of hair cells: greater than 95%
[6]; listed as neomycin
  loss of hair cells: 95%
[7]
  HCs killed: > 95%
